Where a name gives a salt, the structure may show the parent alone.
Target: T1, hTRPC5 (Homo sapiens, UniProt Q9UL62)
T1 construct: expressed in transfected cells; host or cells: HEK293 TREx cells with inducible TRPC5 expression
T1 sequence (Q9UL62 1-973): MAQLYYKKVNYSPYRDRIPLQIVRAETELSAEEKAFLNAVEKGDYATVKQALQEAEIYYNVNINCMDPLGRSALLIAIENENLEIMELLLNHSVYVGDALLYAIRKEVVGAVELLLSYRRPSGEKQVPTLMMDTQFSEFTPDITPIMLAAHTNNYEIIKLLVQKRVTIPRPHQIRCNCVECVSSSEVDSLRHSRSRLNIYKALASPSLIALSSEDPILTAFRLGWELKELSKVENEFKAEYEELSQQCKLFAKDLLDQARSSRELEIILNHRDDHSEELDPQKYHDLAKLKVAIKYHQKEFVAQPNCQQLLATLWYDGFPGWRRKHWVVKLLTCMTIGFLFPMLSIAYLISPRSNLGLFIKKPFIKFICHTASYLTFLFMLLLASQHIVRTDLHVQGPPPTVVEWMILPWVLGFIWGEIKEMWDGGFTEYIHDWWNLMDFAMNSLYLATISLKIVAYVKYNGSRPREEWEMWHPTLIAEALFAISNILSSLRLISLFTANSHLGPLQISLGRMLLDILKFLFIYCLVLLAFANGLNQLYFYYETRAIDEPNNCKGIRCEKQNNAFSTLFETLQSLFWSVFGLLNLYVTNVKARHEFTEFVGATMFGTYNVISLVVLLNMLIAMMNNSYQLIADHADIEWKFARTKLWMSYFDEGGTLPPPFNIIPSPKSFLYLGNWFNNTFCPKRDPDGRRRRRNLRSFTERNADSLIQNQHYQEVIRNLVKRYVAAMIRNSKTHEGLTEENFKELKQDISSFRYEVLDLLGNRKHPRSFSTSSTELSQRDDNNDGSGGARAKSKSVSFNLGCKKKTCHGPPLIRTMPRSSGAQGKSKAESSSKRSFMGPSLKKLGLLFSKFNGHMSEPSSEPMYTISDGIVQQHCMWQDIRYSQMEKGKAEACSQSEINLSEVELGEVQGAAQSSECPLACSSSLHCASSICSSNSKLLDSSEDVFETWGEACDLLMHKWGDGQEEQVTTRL
Assay: Whole-cell patch clamp, block of LaCl3-activated TRPC5 inward current
Type: cell-based
Details: TRPC5-expressing HEK293 TREx cells, 80 μM LaCl3, inward current, IC50 estimated from 5 μM and 500 nM, read-out: hTRPC5 Patch La3+ Inwd (nM) (All Batches)
Procedure, shortened: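 Whole-cell recordings in induced TRPC5-expressing HEK293 TREx cells, holding −40 mV, 400 ms ramps −120 to +100 mV every 5 s; current activated by 80 μM external LaCl3 and 1,400 nM pipette free Ca2+ (pH 7.2 internal, 7.4 external). Inward block at −80 mV, with LaCl3 present; IC50 estimated from testing at 5 μM and 500 nM.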

Row | SMILES | IC50 [nM]
1 | CCCOCCc1nc2c(c(=O)n(C)c(=O)n2C)n1Cc1ccc(CO)cc1 [Compound 151] | 2000 to 10000
2 | CNCc1cccc(Oc2nc3c(c(=O)n(C)c(=O)n3C)n2Cc2cccc(Cl)c2)c1 [Compound 152, hydrochloride] | 2000 to 10000
3 | CN(C)Cc1cccc(Oc2nc3c(c(=O)n(C)c(=O)n3C)n2Cc2cccc(Cl)c2)c1 [Compound 153, 7-(3-Chlorobenzyl)-8-(3-((dimethylamino)methyl)phenoxy)-1,3-dimethyl-1H-purine-2,6(3H,7H)-dione hydrochloride] | 2000 to 10000
4 | CCOc1nc2c(c(=O)n(C)c(=O)n2C)n1Cc1cccc(Cl)c1 [Compound 154, 7-(3-Chlorobenzyl)-8-ethoxy-1,3-dimethyl-1H-purine-2,6(3H,7H)-dione] | 2000 to 10000
5 | CCc1coc(CSc2nc3c(c(=O)n(C)c(=O)n3C)n2Cc2ccc(F)cc2)n1 [Compound 156, 8-((4-ethyloxazol-2-yl)methylthio)-7-(4-fluorobenzyl)-1,3-dimethyl-1H-purine-2,6(3H,7H)-dione] | 100 to 500
6 | CCc1coc(CSc2nc3c(c(=O)n(C)c(=O)n3C)n2Cc2ccc(Br)cc2)n1 [Compound 157, 7-(4-bromobenzyl)-8-((4-ethyloxazol-2-yl)methylthio)-1,3-dimethyl-1H-purine-2,6(3H,7H)-dione] | < 100
7 | CCCOCCc1nc2c(c(=O)n(C)c(=O)n2C)n1Cc1ccc(C(C)=O)cc1 [Compound 158] | 2000 to 10000
8 | CCCOCCc1nc2c(c(=O)n(C)c(=O)n2C)n1Cc1cccc(C(C)=O)c1 [Compound 159] | 2000 to 10000
9 | COc1cccc(Cn2c(Oc3cccc(OC(F)(F)F)c3)nc3c2c(=O)n(C)c(=O)n3C)c1 [Compound 160, 7-(3-methoxybenzyl)-1,3-dimethyl-8-(3-(trifluoromethoxy)phenoxy)-1H-purine-2,6(3H,7H)-dione] | 100 to 500
10 | CCCC(=O)c1cccc(Cc2nc3c(c(=O)n(C)c(=O)n3C)n2Cc2cccc(Br)c2)c1 [Compound 161, 7-(3-bromobenzyl)-8-(3-butyrylbenzyl)-1,3-dimethyl-1H-purine-2,6(3H,7H)-dione] | 2000 to 10000
11 | CNCc1cccc(Oc2nc3c(c(=O)n(C)c(=O)n3C)n2Cc2ccc(Cl)cc2)c1 [Compound 163, 7-(4-Chlorobenzyl)-1,3-dimethyl-8-(3-((methylaminol)methyl)phenoxy)-1H-purine-2,6(3H,7H)-dione hydrochloride] | 2000 to 10000
12 | CN(C)Cc1cccc(Oc2nc3c(c(=O)n(C)c(=O)n3C)n2Cc2ccc(Cl)cc2)c1 [Compound 164, 7-(4-Chlorobenzyl)-8-(3-((dimethylaminol)methyl)phenoxy)-1,3-dimethyl-1H-purine-2,6(3H,7H)-dione hydrochloride] | 2000 to 10000
13 | CCC(CO)NC(=O)C(C)Cc1nc2c(c(=O)n(C)c(=O)n2C)n1Cc1cccc(Br)c1 (centres unmarked) [Compound 165] | 2000 to 10000
14 | Cn1c(=O)c2c(nc(Oc3cccc(OC(F)(F)F)c3)n2Cc2cccc(OC(F)(F)F)c2)n(C)c1=O [Compound 166, 1,3-dimethyl-7-(3-(trifluoromethoxy)benzyl)-8-(3-(trifluoromethoxy)phenoxy)-1H-purine-2,6(3H,7H)-dione] | 100 to 500
15 | Cc1cccc(Cn2c(Oc3cccc(OC(F)(F)F)c3)nc3c2c(=O)n(C)c(=O)n3C)c1 [Compound 167, 1,3-dimethyl-7-(3-methylbenzyl)-8-(3-(trifluoromethoxy)phenoxy)-1H-purine-2,6(3H,7H)-dione] | < 100
16 | Cn1c(=O)c2c(nc(Oc3cccc(OC(F)(F)F)c3)n2Cc2cccc(Cl)c2)n(C)c1=O [Compound 168, 7-(3-chlorobenzyl)-1,3-dimethyl-8-(3-(trifluoromethoxy)phenoxy)-1H-purine-2,6(3H,7H)-dione] | 100 to 500
17 | CCc1coc(CSc2nc3c(c(=O)n(C)c(=O)n3C)n2Cc2ccc(C#N)cc2)n1 [Compound 169, 4-((8-((4-ethyloxazol-2-yl)methylthio)-1,3-dimethyl-2,6-dioxo-2,3-dihydro-1H-purin-7(6H)-yl)methyl)benzonitrile] | 1000 to 2000
